Tests used:
[1] = tested on: aged cats with chronic kidney disease (CKD), IRIS stage 1-3; assay: Retrospective case-controlled study: long-term meloxicam in aged cats with CKD (Group A) vs age and IRIS matched untreated controls (Group C); type: in vivo, cat
Description: The diagnosis of osteoarthritis or spondylosis deformans had been made based upon any two of the following: owner noted mobility changes, physical examination findings or radiographic changes. […] In addition, cats were only included if serum biochemistry, urine analysis and body weight had been regularly monitored. […]
In house urine specific gravity was determined with a Reichert Vet360 refractometer. Urine specific gravity was regularly compared to that measured by the same reference laboratory. […]

[2] = tested on: aged cats without chronic kidney disease (no-CKD); assay: Retrospective case-controlled study: long-term meloxicam in aged cats without CKD (Group B) vs age matched untreated controls (Group D); type: in vivo, cat
Description: The medical records of a feline-only practice were searched for cats with OA being treated with meloxicam during a 4 year period. A diagnosis of OA was based upon any two of the following: owner noted mobility changes and/or physical examination findings or radiographic changes. Cats included were older than 7 years and treated with meloxicam for a duration of more than 6 months. Biochemistry, urinalysis and body weight were regularly monitored. The progression of renal disease in the aged non-renal and renal group treated was compared to age matched and IRIS matched untreated controls from the same clinic. IRIS staging of CKD follows specific guidelines on the diagnosis and assessment of progression of renal disease in small animals as described below. Animals are being divided into […] categories according to the stage of their disease, see Table 1 (iris-kidney.com).
The database of a feline-only practice in suburban Melbourne was searched for cats which had been treated for chronic musculoskeletal diseases with meloxicam (Metacam® oral suspension, Boehringer Ingelheim) during a 4 year period. The diagnosis of osteoarthritis or spondylosis deformans had been made based upon any two of the following: owner noted mobility changes, physical examination findings or radiographic changes. The inclusion criteria included cats greater than 7 years old which had been treated continuously with meloxicam for a duration of more than 6 months and which had complete medical records available for review. In addition, cats were only included if serum biochemistry, urine analysis and body weight had been regularly monitored.
Young cats were excluded, as were cats with no pre-treatment renal parameter measurements. In addition cats were also excluded if the owner could not be contacted to check that the cats were still receiving daily treatment with meloxicam.
Age, breed, sex, concomitant diseases and medications as well as date treatment commenced, treatment duration and daily dose of meloxicam were recorded.
The majority of serum biochemistry determination was via external reference laboratory (Normal Range: Creatinine 0.08-0.20 mmol/L) and the remainder with an in-house IDEXX biochemistry and electrolyte machine (Normal Range: Creatinine 71-212 umol/L). In house urine specific gravity was determined with a Reichert Vet360 refractometer. Urine specific gravity was regularly compared to that measured by the same reference laboratory. Urine sediment examination and dipstick determination was carried out in-house with necessary urine cultures and urine protein. Urine creatinine determination was carried out at the same reference laboratory. […]
The median age of the renal and non-renal treated cats, median treatment duration and median maintenance dose was calculated. […]

progression of creatinine ([2]; meloxicam treated no-CKD group (B) vs untreated no-CKD group): no significant difference
progression of renal parameters ([2]; non-renal group treated with meloxicam (B) vs non-renal group not treated, median maintenance dose 0.02 mg/kg daily, median treatment duration 327 days): no differences
SMILES: Cc1cnc(NC(=O)C2=C(O)c3ccccc3S(=O)(=O)N2C)s1 [meloxicam]
differences from baseline in body weight ([1]; CKD-meloxicam group (A) vs age and IRIS matched untreated CKD group (C), time adjusted AUC, Wilcoxon rank-sum-test): no statistically significant differences
median maintenance dose after dose titration to the lowest effective dose ([1]; renal treated group (A), oral suspension): 0.02 mg/kg daily
differences from baseline in body weight ([2]; no-CKD meloxicam group (B) vs untreated no-CKD group (D), time adjusted AUC, Wilcoxon rank-sum-test): no statistically significant differences
median maintenance dose after dose titration to the lowest effective dose ([2]; non-renal treated group (B), oral suspension): 0.02 mg/kg daily
